The source of these data is patent US10233190B2, “IDO inhibitors” (NewLink Genetics Corporation, priority 2011, dated 2019).

A short description of series [1]: Steady state plasma concentration from subcutaneous osmotic pumps.
Series [2] has as its system LLC murine tumor cells. The series can be described thus: In vivo antitumor activity, LLC tumor allograft, alone or with chemotherapy. As to conditions: for antitumor effect: LLC tumor in C57Bl6 mice, single agent or in combination with chemotherapy.

Turning to `OC(CC1c2ccccc2-c2cncn21)C1CCCCC1` (stereo not drawn) [Compound 1304, 1-cyclohexyl-2-(5H-imidazo[5,1-a]isoindol-5-yl)ethanol], in series [1] (s.c. osmotic pumps, 200 uL of 30 mg/mL solution, 1 uL per hour for 8 days), the “steady state plasma concentration of drug” value fell in the range of 0.5 to 3 µM. For the same molecule, the antitumor effect result in series [2] is on record as “significant antitumor effect”. Moreover, the “long term survival fraction, mice tumor free after 60 days” value in series [2] (LLC tumor, after 60 days) was 70-80%. Besides, in series [2] (LLC tumor, single agent or in combination with cyclophosphamide), the “median survival time (log rank test)” value was “statistically significant difference in median survival time”. In series [2] (LLC tumor, single agent or in combination with cyclophosphamide 100 mg/kg i.p.), the “average tumor volume over time” value was “very sensitive to the effects of treatment”.
Take `OC(CC1c2c(F)cccc2-c2cncn21)C1CCCCC1` (stereo not drawn) [Compound 1357, 1-cyclohexyl-2-(6-fluoro-5H-imidazo[5,1-a]isoindol-5-yl)ethanol]: the “steady state plasma concentration of drug” value in series [1] (mouse, in vivo) lay in the range of 0.5 to 3 µM. Moreover, the antitumor effect entry in series [2] is “significant antitumor effect”. Besides, the “median survival time vs vehicle (log rank test)” value in series [2] (LLC tumor, single agent) was “statistically significant difference in median survival time”. Further, the “average tumor volume over time vs vehicle (fitted exponential growth curves)” value in series [2] (LLC tumor, single agent, osmotic pumps, p<0.0001) was “statistically significant differences”.
